# Source: US8802664B2 (Bioproject, priority 2010, dated 2014)
# Where a name gives a salt, the structure may show the parent alone.
row,Structure (SMILES),melting point [°C]
1,"CN1CCC(OC(c2ccc3cc[nH]c3c2)c2nc3ccccc3[nH]2)CC1 (centres unmarked) (as salt: oxalate) [Example 550, 2-[(1H-indol-6-yl)(1-methylpiperidin-4-yloxy)methyl]-1H-benzimidazole]",170
2,"CN1CCC(OC(c2cccc(OCCCN3CCN(C(=O)OC(C)(C)C)CC3)c2)c2nc3ccccc3[nH]2)CC1 (centres unmarked) (as salt: oxalate) [Example 360, 4-(3-{3-[(1H-benzimidazol-2-yl)(1-methylpiperidin-4-yloxy)methyl]phenoxy}propyl)piperazine-1-carboxylic acid tert-butyl ester]",140
3,"Cc1cccc(C(OC2CCN(C)CC2)c2nc3ccccc3s2)c1 (centres unmarked) (as salt: oxalate) [Example 8, 2-[(1-methylpiperidin-4-yloxy)(m-tolyl)methyl]benzothiazole]",177
4,"CC(=O)NC1CCN(c2cccc(C(OC3CCN(C)CC3)c3nc4ccccc4s3)c2)C1 (centres unmarked) (as salt: oxalate) [Example 408, N-(1-{3-[benzothiazol-2-yl(1-methylpiperidin-4-yloxy)methyl]phenyl}pyrrolidin-3-yl)acetamide]",111
5,"CN1CCC(OC(c2cccc(C#CCCCNC(=N)N)c2)c2nc3ccccc3s2)CC1 (centres unmarked) (as salt: hydrochloride) [Example 340, N-(5-{3-[benzothiazol-2-yl(1-methylpiperidin-4-yloxy)methyl]phenyl}pent-4-ynyl)guanidine]",180
6,"CN1CCC(OC(c2cccc(C#CCCCCNC(=N)N)c2)c2nc3ccccc3s2)CC1 (centres unmarked) (as salt: hydrochloride) [Example 342, N-(6-{3-[benzothiazol-2-yl(1-methylpiperidin-4-yloxy)methyl]phenyl}hex-5-ynyl)guanidine]",185
7,"CN1CCC(NC(c2cccc(C#CCCCCN)c2)c2nc3ccccc3s2)CC1 (centres unmarked) (as salt: oxalate) [Example 420, {[3-(6-aminohex-1-ynyl)phenyl]benzothiazol-2-yl-methyl}(1-methylpiperidin-4-yl)amine]",80
8,"CN1CCC(OC(c2cccc(OCc3ccccn3)c2)c2nc3ccccc3s2)CC1 (centres unmarked) (as salt: oxalate) [Example 283, 2-{(1-methylpiperidin-4-yloxy)[3-(pyridin-2-ylmethoxy)phenyl]methyl}benzothiazole]",158
9,"CN1CCC(OC(c2ccc(N)cc2)c2nc3ccccc3[nH]2)CC1 (centres unmarked) (as salt: hydrochloride) [Example 455, 4-[(1H-benzimidazol-2-yl)(1-methylpiperidin-4-yloxy)methyl]aniline]",185
10,"CN1CCC(OC(c2ccc(Cl)cc2)c2nc3ccccc3s2)CC1 (centres unmarked) (as salt: oxalate) [Example 4, 2-[(4-chlorophenyl)(1-methylpiperidin-4-yloxy)methyl]benzothiazole]",147 to 148
11,"CN1CCC(OC(c2cccc(N3CCCC3CO)c2)c2nc3ccccc3s2)CC1 (centres unmarked) (as salt: oxalate) [Example 324, (1-{3-[benzothiazol-2-yl(1-methylpiperidin-4-yloxy)methyl]phenyl}pyrrolidin-2-yl)methanol]",99
12,"CN1CCC(OC(c2cccc(N3CCC(N)C3)c2)c2nc3ccccc3s2)CC1 (centres unmarked) (as salt: oxalate) [Example 423, 1-{3-[benzothiazol-2-yl(1-methylpiperidin-4-yloxy)methyl]phenyl}pyrrolidin-3-ylamine]",145
13,"CN1CCC(OC(c2cccc(SCCN)c2)c2nc3cc(F)ccc3[nH]2)CC1 (centres unmarked) (as salt: oxalate) [Example 428, 2-{3-[(5-fluoro-1H-benzimidazol-2-yl)(1-methylpiperidin-4-yloxy)methyl]phenylsulfanyl}ethylamine]",85
14,"CN1CCC(OC(c2cccc(-c3ccc(Cl)c(Cl)c3)c2)c2nc3ccccc3[nH]2)CC1 (centres unmarked) (as salt: oxalate) [Example 122, 2-[(3′,4′-dichlorobiphenyl-3-yl)(1-methylpiperidin-4-yloxy)methyl]-1H-benzimidazole]",150
15,"CN1CCC(OC(c2nc3ccccc3s2)c2ccccc2F)CC1 (centres unmarked) (as salt: oxalate) [Example 6, 2-[(2-fluorophenyl)(1-methylpiperidin-4-yloxy)methyl]benzothiazole]",178 to 179
16,"CN1CCC(OC(c2cccc(-c3ccc(F)cc3)c2)c2nc3ccccc3[nH]2)CC1 (centres unmarked) (as salt: oxalate) [Example 115, 2-[(4′-fluorobiphenyl-3-yl)(1-methylpiperidin-4-yloxy)methyl]-1H-benzimidazole]",100
17,CN1CCC(OC(c2cccc(OC3CCC(N)C3)c2)c2nc3ccccc3s2)CC1 (centres unmarked) (as salt: oxalate) [Example 453],91
18,"CN1CCC(OC(c2cccc(N3CCC(O)C3)c2)c2nc3ccccc3s2)CC1 (centres unmarked) (as salt: oxalate) [Example 407, 1-{3-[benzothiazol-2-yl(1-methylpiperidin-4-yloxy)methyl]phenyl}pyrrolidin-3-ol]",106
19,"CN1CCC(OC(c2cccc(SCCCCN)c2)c2nc3ccccc3[nH]2)CC1 (centres unmarked) (as salt: oxalate) [Example 326, 4-{3-[(1H-benzimidazol-2-yl)(1-methylpiperidin-4-yloxy)methyl]phenylsulfanyl}butylamine]",146

row,Structure (SMILES),melting point [°C]
1,"CN1CCC(OC(c2cc(F)cc(F)c2)c2nc3ccccc3s2)CC1 (centres unmarked) (as salt: oxalate) [Example 15, 2-[(3,5-difluorophenyl)(1-methyl-piperidin-4-yloxy)methyl]benzothiazole]",165
2,"CC(=O)CCCOc1cccc(C(OC2CCN(C)CC2)c2nc3ccccc3s2)c1 (centres unmarked) (as salt: oxalate) [Example 186, 5-{3-[benzothiazol-2-yl(1-methylpiperidin-4-yloxy)methyl]phenoxy}pentan-2-one]",72
3,"CN1CCC(OC(c2cccc(SCCCCCN)c2)c2nc3ccccc3s2)CC1 (centres unmarked) (as salt: oxalate) [Example 305, 5-{3-[benzothiazol-2-yl(1-methylpiperidin-4-yloxy)methyl]phenylsulfanyl}pentylamine]",201
4,"CSc1cccc(C(NC2CCN(C)CC2)c2nc3ccccc3s2)c1 (centres unmarked) (as salt: oxalate) [Example 111, [benzothiazol-2-yl(3-methylsulfanylphenyl)methyl](1-methylpiperidin-4-yl)amine]",85
5,Cc1ccc(C(OC2CCN(C)CC2)c2nc3ccccc3o2)c(F)c1 (centres unmarked) (as salt: oxalate) [Example 545],110
6,"CN1CCC(OC(c2cccc(C=CCCCO)c2)c2nc3ccccc3[nH]2)CC1 (centres unmarked) (as salt: oxalate) [Example 389, 5-{3-[(1H-benzimidazol-2-yl)(1-methylpiperidin-4-yloxy)methyl]phenyl}pent-4-en-1-ol]",125
7,"CN1CCC(OC(c2cccc(OCCCCCNCC(=O)OC(C)(C)C)c2)c2nc3ccccc3s2)CC1 (centres unmarked) (as salt: oxalate) [Example 375, (5-{3-[benzothiazol-2-yl(1-methylpiperidin-4-yloxy)methyl]phenoxy}pentylamino)acetic acid tert-butyl ester]",99
8,"CN1CCC(OC(c2cccc(C(F)(F)F)c2)c2nc3ccccc3s2)CC1 (centres unmarked) (as salt: hydrochloride) [Example 31, 2-[(1-methylpiperidin-4-yloxy)(3-trifluoromethylphenyl)methyl]benzothiazole]",61
9,"CN1CCC(OC(c2cccc(OCCCCO)c2)c2nc3ccccc3s2)CC1 (centres unmarked) (as salt: oxalate) [Example 266, 4-{3-[benzothiazol-2-yl(1-methylpiperidin-4-yloxy)methyl]phenoxy}butan-1-ol]",63
10,"Cc1ccc(C(OC2CCN(C)CC2)c2nc3ccccc3s2)cc1 (centres unmarked) (as salt: oxalate) [Example 7, 2-[(1-methylpiperidin-4-yloxy)-p-tolylmethyl]benzothiazole]",177
11,"CN1CCC(OC(c2nc3ccccc3[nH]2)c2cc(C#CCCCCN)ccc2F)CC1 (centres unmarked) (as salt: oxalate) [Example 557, 6-{3-[(1H-benzimidazol-2-yl)(1-methylpiperidin-4-yloxy)methyl]-4-fluorophenyl}hex-5-ynylamine]",195
12,"CN1CCC(NC(c2cccc(OCCC3=CCC4CC3C4(C)C)c2)c2nc3ccccc3[nH]2)CC1 (centres unmarked) (as salt: oxalate) [Example 181, ((1H-benzimidazol-2-yl)-{3-[2-(6,6-dimethyl-bicyclo[3.1.1]hept-2-en-2-yl)ethoxy]phenyl}methyl)(1-methylpiperidin-4-yl)amine]",123
13,CNC1CCN(c2cccc(C(OC3CCN(C)CC3)c3nc4ccccc4s3)c2)C1 (centres unmarked) (as salt: oxalate) [Example 483],115
14,"Cc1cc(F)cc(C(OC2CCN(C)CC2)c2nc3ccccc3s2)c1 (centres unmarked) (as salt: oxalate) [Example 38, 2-[(3-fluoro-5-methylphenyl)(1-methylpiperidin-4-yloxy)methyl]benzothiazole]",170
15,"CN1CCC(OC(c2ccc3c(c2)OCO3)c2nc3ccccc3s2)CC1 (centres unmarked) (as salt: hydrochloride) [Example 20, 2-[benzo[1,3]dioxol-5-yl(1-methylpiperidin-4-yloxy)methyl]benzothiazole]",110
16,"CN1CCC(OC(c2cccc(OCc3cccc(F)c3F)c2)c2nc3ccccc3s2)CC1 (centres unmarked) (as salt: oxalate) [Example 161, 2-[[3-(2,3-difluorobenzyloxy)phenyl](1-methylpiperidin-4-yloxy)methyl]benzothiazole]",98
17,"Cc1ccc(C(OC2CCN(C)CC2)c2nc3ccccc3[nH]2)c(Cl)c1 (centres unmarked) (as salt: oxalate) [Example 213, 2-[(2-chloro-4-methylphenyl)(1-methylpiperidin-4-yloxy)methyl]-1H-benzimidazole]",96
18,"CN1CCC(OC(c2cccc(OC3CCNCC3)c2)c2nc3ccccc3s2)CC1 (centres unmarked) (as salt: oxalate) [Example 415, 2-{(1-methylpiperidin-4-yloxy)[3-(piperidin-4-yloxy)phenyl]methyl}benzothiazole]",76
19,"CN1CCC(NC(c2cccc(I)c2)c2nc3ccccc3s2)CC1 (centres unmarked) (as salt: oxalate) [Example 48, [benzothiazol-2-yl(3-iodophenyl)methyl](1-methylpiperidin-4-yl)amine]",188 to 195
